Measurements: patent publication US20060264418A1, “6-(2,2,2-Trifluoroethylamino-7-chloro-2,3,4,5-tetrahydro-1h-benzo[d] azephine as a 5-ht2c receptor agonist” (priority 2003, published 2006)

Tests used:
[1] = biological target: alpha 2 adrenergic receptor; experiment: Radioligand receptor binding assay, alpha 2 adrenergic
5-HT2C receptor = biological target: T1, 5-HT2C receptor (Homo sapiens, UniProt P28335); experiment: G alpha q-GTPγ[35S] binding agonist activity assay (ISPA), 5-HT2C; type: biochemical; set-up: expressed in transfected cells; host or cells: AV12 cells
T1 sequence (P28335 33-458): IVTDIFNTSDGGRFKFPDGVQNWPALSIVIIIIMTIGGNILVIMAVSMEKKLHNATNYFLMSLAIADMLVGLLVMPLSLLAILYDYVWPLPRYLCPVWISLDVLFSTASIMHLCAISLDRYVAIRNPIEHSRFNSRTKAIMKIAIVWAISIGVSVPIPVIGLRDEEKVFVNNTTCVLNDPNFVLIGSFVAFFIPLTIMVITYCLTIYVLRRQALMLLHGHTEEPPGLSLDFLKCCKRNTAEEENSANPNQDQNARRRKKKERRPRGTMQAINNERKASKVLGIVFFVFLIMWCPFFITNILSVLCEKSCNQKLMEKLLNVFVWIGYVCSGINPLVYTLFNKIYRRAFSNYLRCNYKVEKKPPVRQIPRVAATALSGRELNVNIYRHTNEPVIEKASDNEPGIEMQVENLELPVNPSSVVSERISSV

male Long-Evans rats [2] = experiment: Calorimetric acute feeding assay; type: in vivo, rat; conditions: oral dose
Description: (§1) Animals: Obtain male Long-Evans rats (Harlan Sprague-Dawley, Indianapolis, Ind.) that are approximately one hundred-days old and have been maintained on a calorie rich diet since weaning (TD 95217, 40% calories from fat; Teklad, Madison, Wis.). House the rats individually with a 12 hr.:12 hr. light:dark cycle (lights on from about 22:00 hr. to about 10:00 hr.) and maintain rats on the same diet (TD 95217) with free access to water, for about 1-2 weeks to acclimate the rats to the environment. Dose rats orally with vehicle (10% acacia with 0.15% saccharin in water) once daily for at least 1 day (typically 1-2 days) to acclimate the rats to the procedures. Randomize the rats into groups so each group has similar mean body weights.
Calorimetric Acute Feeding Assay: At approximately 8:00 hr. on the day of assay, weigh each rat and transfer to individual chambers of an open circuit calorimetry system (Oxymax, Columbus Instruments International Corporation; Columbus, Ohio), with free access to food (pre-weighed) and water, and begin measuring VO2 and VCO2. At approximately 10:00 hr., dose rats orally with vehicle or test compound, return them to their calorimetry chambers, and continue measuring VO2 and VCO2 at regular time intervals (approximately hourly). At approximately 8:00 hr. the following day, measure rat body weight and the remaining food, assuming the difference in weight of food is equal to the mass of food consumed. Calculate the 24 hr. energy expenditure (EE) and respiratory quotient (RQ) essentially as described in Chen, Y. and Heiman, M. L., Regulatory Peptide, 92:113-119 (2000). […]
Calculate EE as the product of calorific value (CV) and VO2 per body weight (kg); where CV=3.815+1.232*RQ, and RQ is the ratio of CO2 produced (VCO2) to O2 consumed (VO2). Caloric intake is calculated as (mass of 24 hr. food intake in grams)×(physiological fuel value of the diet in kilocalorie/g) per kg of body weight.

Wistar rats = experiment: Schedule-induced polydipsia; type: in vivo, rat
Description: Food-deprived rats exposed to intermittent presentations of food will drink amounts of water that are far in excess of their normal daily intake and in excess of their intake when given all of their food at one time (Falk J L. “Production of polydipsia in normal rats by an intermittent food schedule”, Science 133: 195-196, (1961)). This excessive behavior is persistent and has been used to model OCD.
Maintain Wistar rats on a food restricted diet (to maintain 85% free feeding weight), but with free access to water. Train the rats in a behavioral testing chamber to press a lever to receive a food pellet under a fixed interval schedule, such that the rats are rewarded with a 45 mg food pellet the first time they press a lever after a 120 second interval has elapsed. The fixed interval is then reset to 120 seconds and the process repeated. Thus, during a 90 min. test session, the rats can earn a maximum of 45 pellets. The behavioral chamber is also equipped with a water bottle that is weighed before and after the session to determine the amount of water consumed.
Administer test compounds on Tuesdays and Fridays. Determine control day performances on Thursdays. Administer compounds either orally at 60 min. before the beginning of a test session, or subcutaneously at 20 min. before the beginning of a test session. Compare the rates of lever pressing and water consumption for each animal's performance during sessions after test compound treatment with that animal's performance during control sessions, expressed as a percent of the control rate. Average the individual percent of control rates for each dose and calculate the standard error of the mean.
The in vivo efficacy of 5HT2C compounds at the 5HT2C receptor was confirmed by the prevention of effects of the 5HT2C agonists on excessive drinking by co-administration of the 5HT2C receptor antagonist, 6-chloro-5-methyl-N-(2-(2-methylpyridin-3-yl-oxy)pyridin-5-yl)aminocarbonyl)-2,3-dihydroindole.

male Long-Evans rats [3] = experiment: Chronic feeding assay; type: in vivo, rat
Description: as §1
Chronic Feeding Assay: At between approximately 8:00 hr. and 10:00 hr. on day one of the assay, weigh and orally dose each rat with vehicle or test compound and return the animal to its home cage, with free access to food (pre-weighed) and water. For each of days 2-15, at between approximately 8:00 hr. and 10:00 hr., measure rat body weight and the weight of food consumed in the last 24 hr. period, and administer daily oral dose of test compound or vehicle. On days −2 and 15 measure total fat mass and lean mass by nuclear magnetic resonance (NMR) using an EchoMRI™ system (Echo Medical Systems, Houston Tex.). (See Frank C. Tinsley, Gersh Z. Taicher, and Mark L. Heiman, “Evaluation of a New Quantitative Magnetic Resonance (QMR) Method for Mouse Whole Body Composition Analysis”, Obesity Research, submitted May 1, 2003.)

[4] = daily oral dose days 1-15, compared to control animals

What does the source list for `FC(F)(F)CNc1c(Cl)ccc2c1CCNCC2.O=C(O)CCC(=O)O` [Example 2, 7-Chloro-6-(2,2,2-trifluoroethylamino)-2,3,4,5-tetrahydro-1H-benzo[d]azepine Succinic Acid Salt]?
IC50 [1]: > 3000 nM; EC50 (5-HT2C receptor): 11.8 ± 2.8 nM; AUC 2C/2A Selectivity Ratio (5-HT2C receptor; ratio of AUCs normalized to 5-HT, 5-HT2C receptor/5-HT2A receptor): 2.2; AUC 2C/2B Selectivity Ratio (5-HT2C receptor; ratio of AUCs normalized to 5-HT, 5-HT2C receptor/5-HT2B receptor): 3.8; Emax (5-HT2C receptor; read-out: 5HT2C Emax): 106 ± 2.8%; 24 hr. food intake (male Long-Evans rats [2]; acute assays, rats on calorie rich diet): significantly reduce 24 hr. food intake; respiratory quotient (RQ) (male Long-Evans rats [2]; acute, 24 hr. calorimetry): dose-dependently reduced RQ; energy expenditure during the light photoperiod (male Long-Evans rats [2]; acute, indicative of resting metabolic rate): without significantly changing; schedule-induced polydipsia (excessive drinking) (Wistar rats; food restricted rats, 90 min. test session): suppress schedule-induced polydipsia without producing notable changes in motor patterns, food intake, or behavior the following day; suppression of excessive drinking with co-administration of the 5-HT2C receptor antagonist (Wistar rats; rats): blocked; lean body mass (male Long-Evans rats [3]; NMR, days -2 and 15): not changed; cumulative body weight change (male Long-Evans rats [3]; [4]): significantly decrease; cumulative food intake (male Long-Evans rats [3]; [4]): significantly decrease; source of the decrease in body weight (fat mass by NMR) (male Long-Evans rats [3]; days -2 and 15): loss of adipose tissue
